ChEMBL document CHEMBL1123591, “Synthetic analogues of tetrahydrobiopterin with cofactor activity for aromatic amino acid hydroxylases” (1987)

system: dihydropteridine reductase; test: Tested in isolated enzyme assay for its cofactor activity against dihydropteridine reductase expressed as relative velocity

**Q.** With `CCCOCC1CNc2nc(N)nc(O)c2N1.Cl.Cl` (centres undefined) as the compound, how does the Relative velocity read?
**A.** 212%

**Q.** Which Relative velocity does the source give for `COCC1CNc2nc(N)nc(O)c2N1.Cl.Cl` (centres undefined) here?
**A.** 421%

**Q.** With `CC1CNc2nc(N)[nH]c(=O)c2N1.Cl.Cl` (centres undefined) as the compound, how does the Relative velocity read?
**A.** 216%

**Q.** For `CC(O)C(O)C1CNc2nc(N)nc(O)c2N1.Cl.Cl` (centres undefined), which Relative velocity is on record?
**A.** 100%

**Q.** For `CC1(C)CNc2nc(N)nc(O)c2N1`, which Relative velocity is on record?
**A.** 239%

**Q.** With `CCOCC1CNc2nc(N)nc(O)c2N1.Cl.Cl` (centres undefined) as the compound, how does the Relative velocity read?
**A.** 419%

**Q.** How did the Relative velocity turn out when `CC(C)(C)OCC1CNc2nc(N)nc(O)c2N1.Cl.Cl` (centres undefined) was run?
**A.** 222%

**Q.** How did the Relative velocity turn out when `CC(C)OCC1CNc2nc(N)nc(O)c2N1.Cl.Cl` (centres undefined) was run?
**A.** 277%

system: dihydropteridine reductase; test: Tested in isolated enzyme assay for its cofactor actidihydropteridine reductaseity against dihydropteridine reductase expressed as relatidihydropteridine reductasee dihydropteridine reductaseelocity

**Q.** With `CCCCOCC1CNc2nc(N)nc(O)c2N1.Cl.Cl` (centres undefined) as the compound, how does the Relative velocity read?
**A.** 283%
